Test results published in patent publication US10071987B2, “Aminomethylene pyrazolones with therapeutic activity” (Compound Handling B.V., priority 2012, dated 2018).
“And” between values parts separate entries of the source, which are not always exact repeats. Identical values can stand only once.

How the values were obtained:
PC3 cells = test: Cell invasion assay (BD Biocoat Matrigel Invasion chambers, CellTiter-GLO readout); assay type: cell-based, human; details: 48 hours invasion, versus DMSO treated cells, several values = repeated assays; for inhibition at 10 µM: Homo sapiens, PC-3, PC3 cells incubated with compound (10 μM) for 4 days prior to assay; for Results % inhibition of invasion in invasion assays: PC3 cells incubated with compound (10 μM) for 4 days prior to assay, 10 µM
Description: For determining the effectiveness of the compounds according to the invention, a model assay based on the migration of cells in a migration chamber was employed. This model is accepted in the art as providing representative data on the ability of cells to metastasize.
The PC-3 prostate cancer cell line (ATCC# CRL-1435) was maintained in RPMI-1640 medium (Invitrogen, 31870), supplemented with 10% Fetal Bovine Serum (Sigma, F7524), L-Glutamine (Invitrogen 25030-024). Cells were split once a week at a 1:10 ratio.
For cell invasion assays, PC3 cells were incubated in the presence of a compound according to the invention (10 μM) for 4 days, prior to the invasion assay. Forty thousand cells were seeded into BD Biocoat Matrigel Invasion chambers (8 micron; BD 354480) in serum-free medium. The invasion chamber was placed in a 24-well containing medium with 10% fetal calf serum as chemo-attractant. As a control, the same amount of cells was seeded in 24-well culture plates. After 48 hours incubation, cells in the invasion chamber were removed by aspiration and cleaning the inner compartment with a cotton swab. The invasion chamber was then put into CellTiter-GLO (CTG, Promega-G7571) cell viability reagent, incubated for 15 minutes, and then analyzed on a Victor3 luminometer. Cell invasion was calculated as the CTG activity on the lower part of the membrane divided by the CTG activity of the cells grown in a 24 well plate. Inhibition of cell invasion by a specific compound was estimated by comparing the amount of cell invasion of compound-treated cells versus DMSO treated cells.

PC-3M-Pro4luc+ cells = test: Formation of de novo skeletal metastases in mice, whole body bioluminescence imaging; assay type: in vivo; details: treatment of mice
Description: Treatment of mice with 4-[1-aminomethylidene]-2-benzothiazol-2-yl-5-phenyl-2,4-dihydro-pyrazol-3-one decreased the number of bone lesions and metastatic tumor burden. Cancer cells and tumor burden were monitored by whole body bioluminescence imaging. […] Such in vivo testing may lead to further selection, preference, deselection or disfavor of individual compounds for further programs for development of a compound for use in a prescription medicine. A particular compound of interest for such advanced testing is, 4-(aminomethylene)-2-(2-benzothiazolyl)-2,4-dihydro-5-(3-chlorophenyl)-3H-pyrazol-3-one.

| Structure (SMILES) | inhibition at 10 µM (PC3 cells) | also measured |
| --- | --- | --- |
| N/C=C1/C(=O)N(c2nc3ccccc3s2)N=C1c1cccc(Br)c1 | 87% | Results % inhibition of invasion in invasion assays (PC3 cells): 76% |
| N/C=C1/C(=O)N(c2nc3ccccc3s2)N=C1c1cc2ccccc2s1 | 76% | – |
| N/C=C1/C(=O)N(c2nc3ccccc3s2)N=C1c1cccc(Cl)c1 | 91% | – |
| CN/C=C1/C(=O)N(c2nc3ccccc3s2)N=C1c1cccs1 | 75% | – |
| N/C=C1/C(=O)N(c2nc3ccccc3s2)N=C1c1cccc(C(F)(F)F)c1 [drawing 36] | – | Results % inhibition of invasion in invasion assays (PC3 cells): 89% and 82% and 78% |
| CC1=NN(c2nc3ccccc3s2)C(=O)/C1=C/N1CCCCC1 | 88% | – |
| N/C=C1/C(=O)N(c2nc3ccccc3s2)N=C1c1cccc(I)c1 | 86% | – |
| N/C=C1/C(=O)N(c2nc3ccccc3s2)N=C1c1ccc(Br)s1 | 57% | – |
| C/C(NCc1ccc(Cl)c(Cl)c1)=C1\C(=O)N(c2nc3ccccc3s2)N=C1C(F)(F)F | 56% | – |
| NC=C1C(=O)N(c2nc3ccccc3s2)N=C1c1ccccc1 [Example 2, 4-[1-Aminomethylidene]-2-benzothiazol-2-yl-5-phenyl-2,4-dihydro-pyrazol-3-one] | – | metastatic tumor burden (PC-3M-Pro4luc+ cells): decreased; number of bone lesions (PC-3M-Pro4luc+ cells): decreased |
| COc1ccc(CN/C=C2/C(=O)N(c3nc4ccccc4s3)N=C2c2ccccc2)cc1 | 35% | – |
| COc1ccc2nc(N3N=C(c4ccccc4)/C(=C\N)C3=O)sc2c1 | 70% | – |
| Cc1ccc2nc(N3N=C(c4cccc(C(F)(F)F)c4)/C(=C\N)C3=O)sc2c1 | 67% | – |
| N/C=C1/C(=O)N(c2nc3ccccc3s2)N=C1c1ccccc1 | 52% | Results % inhibition of invasion in invasion assays (PC3 cells): 49% and 45% |
| Cc1ccc(C2=NN(c3nc4ccccc4s3)C(=O)/C2=C/N)cc1Br | 57% | – |
| N/C=C1/C(=O)N(c2nc3ccccc3s2)N=C1c1cccc(C(F)(F)F)c1 [drawing 33] | 91% | – |
| N/C=C1/C(=O)N(c2nc3ccc([N+](=O)[O-])cc3s2)N=C1c1cccc(C(F)(F)F)c1 | 73% | – |
| N/C=C1/C(=O)N(c2nc3ccc(Cl)cc3s2)N=C1c1ccccc1 | 89% | – |
